Assay results reported in patent US20110189174A1, “COMPOSITIONS AND METHODS FOR TREATING, REDUCING, AMELIORATING, ALLEVIATING, OR INHIBITING PROGRESSION OF, PATHOGENIC OCULAR NEOVASCULARIZATION” (priority 2010, published 2011).

Legend:
[1] = tested on: laser-induced CNV in monkeys; test: Laser-induced choroidal neovascularization in monkeys, fluorescein angiography lesion grading; format: in vivo, cynomolgus monkeys (Macaca fascicularis); conditions: intravitreal, both eyes, days 1 and 15, 1.5 mg/eye (Lucentis 0.5 mg/eye)
Procedure: Study was performed in three phases. In phases Ia and Ib, the behavior of the suspension in aqueous (Ia) and oil (Ib) formulations, and multiple dosing regimens as well as any adverse effect due to multiple dosing at 3 mg/eye (Ia) or 1.5 (Ib) were investigated. In phase II test articles were administered twice during the study period on days 1 and 15. Eyes were examined with an indirect ophthalmoscope and fundus camera.
Adult male cynomolgus monkeys (Macaca fascicularis) age 2-7 years old were used to test the efficacy of BOL-303050-X, BOL-303054-X and BOL-303055-X. Lucentis® (ranibizumab) was used as historic control.
Both eyes of 46 monkeys were examined at baseline and then 42 animals were randomized into 5 groups. On Phase II Day 8 of Dosing, the animals were anesthetized with ketamine and dexmedetomidine and the macula of each eye of the animals in Groups 1 through […] underwent laser treatment by a retinal surgeon with a 532 nm diode green laser (OcuLight GL, IRIDEX Corp. Inc., Mountain View, Calif.) using a slit lamp delivery system and a Kaufman-Wallow (Ocular Instruments Inc, Bellevue, Wash.) plano fundus contact lens with Gonak (2.5%) as the coupling agent. Nine laser spot areas were symmetrically placed in the macula of each eye. The laser parameters included a 75 micron spot size and 0.1 second duration. The power setting used was assessed by the ability to produce a blister and a small hemorrhage. […] For areas not adjacent to the fovea, the initial power setting was 500 mW; if a second spot was placed, the power was set to 650 mW. For the area adjacent to the fovea the power settings were 400 mW (initial treatment) and 550 mW (second treatment). At the discretion of the retinal surgeon, power settings were adjusted based on observations at the time of laser. Power setting used for each spot was documented as well as number of burns per spot and whether hemorrhage occurred.
(§1) Once the phase Ib study was completed, and it was established that the drug suspension in oil would not interfere with either laser administration, evaluation of CNV or cause adverse effects, phase II was initiated. On days 1, and 15 both eyes of monkeys received 50 μL of Lucentis (0.5 mg/eye), vehicle (0 mg/eye), BOL-303050-X (1.5 mg/eye), BOL-303054-X (1.5 mg/eye) or BOL-303055-X (1.5 mg/eye) (Table 2). Intravitreous injection was performed for each by eye aiming towards mid-vitreous body. Dosing in the right eye was alternated for successive doses (as applicable) at approximately the 11 o'clock and 10 o'clock positions. Dosing in the left eye was alternated for successive doses (as applicable) from approximately the 1 o'clock and 2 o'clock positions.
Animals were anesthetized with ketamine and dexmedetomidine. A topical anesthetic (0.5% proparacaine) was instilled in each eye before dose administration. A wire speculum was used to retract the eyelids. The eyes were cleaned with a 2.5% povidone iodine solution and then rinsed with sterile saline. Each animal was dosed using 1 cc tuberculin syringes and 30 gauge needles.
FA was performed at baseline, on days 22, 29 and 37 (approximately 14, 21 and 28 days post-laser). Digital ocular photographs were taken in conjunction with FA. The FA procedure is well known by people skilled in the art of ophthalmology.
Evaluation of FA was done according to the following grading system for evidence of excessive permeability (fluorescein leakage) or any other abnormalities.
Grade IV lesions are considered to be clinically significant as these most closely resemble the active forms of classical CNV seen in various human retinal disorders, including age-related macular degeneration. Comparison of the incidence of Grade IV lesions between treatment groups was evaluated.
Grade IV lesions were analyzed using either Fisher's exact probability test (2-Tail) or Chi square test (χ2). […]

[2] = Clinical ophthalmic examination in monkeys (vitreal cell scores, anterior chamber inflammation); format: in vivo, cynomolgus monkeys (Macaca fascicularis); conditions: cynomolgus monkey, in vivo
Procedure: as §1
Animals were examined at baseline, on days 1, 3, 7, 15, and 31 of Dosing Phase II and on the day of scheduled sacrifice (day 38). On days of dose administration the ophthalmic examination was done prior to dosing.

[3] = tested on: human retinal endothelial cells (HREC); test: Testing 7: VEGF-induced HREC proliferation (MTS assay), integrin antagonists and Lucentis alone and in combination; format: cell-based; conditions: Lucentis 1 ng/mL
Procedure: HREC were first cultured overnight in a 96-well plate coated with fibronectin. The next day medium containing different agents as shown in Tables 14 and 15 was pre-incubated for 1 hour before being added into appropriate wells. The cells were cultured at 37° C., 5% CO2, and 95% humidity for another 3 days. After that, cell proliferation was estimated by the MTS assay. In the first study we used VEGF 10 ng/mL (about EC80 in study PH08169), Lucentis® 1 ng/mL (about EC25 in study PH09038) and 5 doses of BOL-303055-X. Normal IgG (1 ng/ml) was also added to groups containing no Lucentis®. All groups contained the same amount of 0.1% DMSO. In the second study, all five compounds (BOL-303049-X, BOL-303050-X, BOL-303051-X, BOL-303054-X and BOL-303055-X) were tested at 1 nM with other conditions remaining the same.
A 96-well plate was coated with human fibronectin (10 μg/mL) for 5 hours at 37° C. HREC were washed with HBSS buffer once, tripsinized and re-suspended in 10% FBS CS-C medium at 18,000 cells/mL. Cells (200 μL) were added to the plate and cultured overnight at 37° C., 5% CO2, and 95% humidity. Next day, the cells were serum-starved for 2 hours.
For study I, VEGF at 10 ng/mL, Lucentis® at 1 ng/mL and BOL-303055-X at 0.1, 0.3, 1, 3 and 10 nM were prepared in 1% FBS CS medium as shown in Table 14. Normal IgG (1 ng/mL) were added to groups containing no Lucentis®. All medium solutions were incubated for 1 hour at 37° C. After carefully medium was aspirated, 200 μL of the medium containing different agents were then added into appropriate wells. The cells were cultured for another 3 days. For the study II as shown in the Table 15, five compounds were tested at 1 nM with other conditions remaining the same as study I.
At the end of incubation, the medium was carefully aspirated from cells and 120 μl of MTS working solution was added into all wells including blank wells (without cells). The plates were incubated at 37° C., 5% CO2, and 95% humidity for 1 hour and then read by a plate reader at 490 nm wavelength.
Median optical density (OD) was generated from different groups. Data were expressed as mean±SEM of the OD values. Statistical analysis was performed using three-way ANOVA after Box-Cox transformations, and p<0.05 was considered statistically significant. To evaluate whether the effects of the combinations were either synergistic or additive, net inhibitions were calculated by subtracting the basal levels in the presence of VEGF from the individual treatments (Lucentis® and Integrin blockers) and the combinations. […] Data analysis was performed utilizing the statistical analysis software JMP (SAS Institute, Cary, N.C.).

[4] = intravitreal, wet AMD, cited from earlier work

For “ranibizumab [Lucentis, reference compound]”, the “Incidence of CNV lesions, Lesion Grade I (% Total)” value ([1]; Day 22) was 97:126 (76.98) %, the “Incidence of CNV lesions, Lesion Grade II (% Total)” value ([1]; Day 22) was 20:126 (15.87) % and the “Incidence of CNV lesions, Lesion Grade III (% Total)” value ([1]; Day 22) was 9:126 (7.14) %. For the same substance, the “Incidence of CNV lesions, Lesion Grade IV (% Total)” value ([1]; Day 22) was 0:126 (0) %, the “Incidence of CNV lesions, Lesion Grade I (% Total)” value ([1]; Day 29) was 96:126 (76.19) % and the “Incidence of CNV lesions, Lesion Grade II (% Total)” value ([1]; Day 29) was 22:126 (17.46) %. For the same substance, the “Incidence of CNV lesions, Lesion Grade III (% Total)” value ([1]; Day 29) was 8:126 (6.35) %, the “Incidence of CNV lesions, Lesion Grade IV (% Total)” value ([1]; Day 29) was 0:126 (0) % and the “Incidence of CNV lesions, Lesion Grade I (% Total)” value ([1]; Day 37) was 118:126 (93.65) %. The “Incidence of CNV lesions, Lesion Grade II (% Total)” value ([1]; Day 37) was 8:126 (6.35) %, the “Incidence of CNV lesions, Lesion Grade III (% Total)” value ([1]; Day 37) was 3:126 (1.85) % and the “Incidence of CNV lesions, Lesion Grade IV (% Total)” value ([1]; Day 37) was 0:126 (0) %. For the same substance, the “Vitreal cell score: number of eyes with grade 4” value [2] was 0, the “Reduction of VEGF-induced HREC proliferation” value ([3]; VEGF 10 ng/mL) was 15-20% and the “HREC proliferation without VEGF” value ([3]; basal and Lucentis-treatment conditions, BOL-303055-X 0.1-10 nM, other compounds 1 nM) was “did not alter HREC proliferation”. For the same substance, the “Patients who maintained visual acuity” value ([4]; at 1 year) was 95% and the “Patients with improvement in vision of at least 3 lines” value [4] was 40%.
